Assay results published in patent US6673795B2, “Pyrimidine, pyrazine and triazane derivatives” (Hoffmann-La Roche Inc., priority 2001, dated 2004).

Tests used:
rat mGluR1a receptor = target: T1, rat mGluR1a receptor (Rattus norvegicus, UniProt P23385); assay: Binding assay for the characterization of mGluR 1 antagonistic properties (tritiated radioligand displacement); settings: membranes of HEK 293 cells transiently transfected with rat mGluR1a; tritiated 1-ethyl-2-methyl-6-oxo-4-(1,1,2-tritritio-1,2,4,5-tetrahydro-benzo[d]azepin-3-yl)-1,6-dihydro-pyrimidine-5-carbonitrile at 3 nM; 1 hour at room temperature
T1 construct: expressed in transfected cells; host or cells: HEK 293 cells, transient transfection; membrane preparation
Method: Binding Assay for the Characterization of mGluR 1 Antagonistic Properties
Binding assay with tritiated 1-ethyl-2-methyl-6-oxo-4-(1,1,2-tritritio-1,2,4,5-tetrahydro-benzo[d]azepin-3-yl)-1,6-dihydro-pyrimidine-5-carbonitrile: HEK 293 cells were transiently transfected with the rat mGluR^1 a receptor. The cells were collected and washed 3 times with PBS. The cell pellets were frozen at −80° C. Membranes were prepared from HEK 293 cells transfected with the rat mGluR^1 a receptor and used in the binding experiments at 10 μg proteins per assay after resuspension in a HEPES NaOH 20 mM, pH=7.4 binding buffer. 1-Ethyl-2-methyl-6-oxo-4-(1,1,2-tritritio-1,2,4,5-tetrahydro-benzo [d]azepin-3-yl)-1,6-dihydro-pyrimidine-5-carbonitrile (S.A 33.4 Ci/mmol) was used at 3 nM final concentration. The incubation with variable concentrations of potential inhibitors was performed for 1 hour at room temperature, the incubate was then filtered onto GF/B glass fiber filter preincubated 1 hour in PEI 0,1% and washed 3 times with 1 ml of cold binding buffer. The radioactivity retained on the unifilter 96 was counted using a Topcount β counter. After correction for non specific binding the data were normalized and the IC50 value calculated using a 4 parameters logistic equation which was fitted to the inhibition curve.

T1 sequence (P23385 19-1199): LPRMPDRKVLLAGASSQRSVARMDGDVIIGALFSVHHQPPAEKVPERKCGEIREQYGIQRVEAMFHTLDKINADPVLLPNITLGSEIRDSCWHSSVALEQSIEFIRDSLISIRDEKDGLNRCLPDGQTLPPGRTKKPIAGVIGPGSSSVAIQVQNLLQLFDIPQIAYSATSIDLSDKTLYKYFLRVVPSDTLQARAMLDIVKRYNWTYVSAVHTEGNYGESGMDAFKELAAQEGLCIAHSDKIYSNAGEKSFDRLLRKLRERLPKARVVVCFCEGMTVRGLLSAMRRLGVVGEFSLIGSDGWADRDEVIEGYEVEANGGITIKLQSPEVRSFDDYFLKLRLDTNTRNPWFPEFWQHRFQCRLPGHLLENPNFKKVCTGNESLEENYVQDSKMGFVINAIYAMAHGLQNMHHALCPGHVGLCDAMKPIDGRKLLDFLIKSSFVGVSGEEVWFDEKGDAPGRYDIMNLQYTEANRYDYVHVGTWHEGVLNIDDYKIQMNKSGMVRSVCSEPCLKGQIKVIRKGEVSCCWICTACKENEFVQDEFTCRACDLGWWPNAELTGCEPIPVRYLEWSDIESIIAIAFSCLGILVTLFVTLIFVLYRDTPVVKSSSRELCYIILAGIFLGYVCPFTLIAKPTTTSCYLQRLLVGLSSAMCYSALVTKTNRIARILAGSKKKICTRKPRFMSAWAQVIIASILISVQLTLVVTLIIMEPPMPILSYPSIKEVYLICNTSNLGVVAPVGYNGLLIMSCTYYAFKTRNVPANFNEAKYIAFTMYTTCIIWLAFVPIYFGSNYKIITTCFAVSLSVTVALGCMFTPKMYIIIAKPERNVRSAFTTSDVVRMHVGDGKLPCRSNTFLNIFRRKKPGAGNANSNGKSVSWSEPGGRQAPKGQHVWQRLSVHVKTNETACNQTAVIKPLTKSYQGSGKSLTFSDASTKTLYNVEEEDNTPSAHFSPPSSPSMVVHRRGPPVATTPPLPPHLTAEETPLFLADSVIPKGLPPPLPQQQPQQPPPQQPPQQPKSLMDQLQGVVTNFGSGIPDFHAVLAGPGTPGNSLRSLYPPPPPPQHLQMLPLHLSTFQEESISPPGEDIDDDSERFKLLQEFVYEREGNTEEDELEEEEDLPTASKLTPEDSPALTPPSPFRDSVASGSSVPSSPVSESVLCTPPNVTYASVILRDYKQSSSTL

Structure (SMILES)	IC50 (rat mGluR1a receptor)	melting point
Cc1nc(N2CCN(c3ccc(F)cc3)CC2)c([N+](=O)[O-])c(=O)[nH]1 [Example 1, 6-[4-(4-Fluoro-phenyl)-piperazin-1-yl]-2-methyl-5-nitro-3H-pyrimidin-4-one]	810 nM	> 250 °C (dec.)
Cc1nc(N2CCC(c3ccccc3)CC2)c([N+](=O)[O-])c(=O)[nH]1 [Example 5, 2-Methyl-5-nitro-6-(4-phenyl-piperidin-1-yl)-3H-pyrimidin-4-one]	63 nM	210 to 213 °C
Cc1nc(N2CCC(c3ccc(F)cc3)CC2)c([N+](=O)[O-])c(=O)n1CCCCO [Example 18, 6-[4-(4-Fluoro-phenyl)-piperidin-1-yl]-3-(4-hydroxy-butyl)-2-methyl-5-nitro-3H-pyrimidin-4-one]	280 nM	154 to 156 °C
N#Cc1ncc(NCCO)nc1N1CCN(c2ccc(F)cc2)CC1 [Example 83, 4-(4-Fluoro-phenyl)-6′-(2-hydroxy-ethylamino)-3,4,5,6-tetrahydro-2H-[1,2′]bipyrazinyl-3′-carbonitrile]	1000 nM	149 to 151 °C

The remaining lines, values ahead:

IC50 (rat mGluR1a receptor)	melting point	Structure (SMILES)
180 nM	116 to 119 °C	CCOc1nc(C)nc(N2CCN(c3ccc(F)cc3)CC2)c1[N+](=O)[O-] [Example 10-2, 4-ethoxy-6-[4-(4-fluoro-phenyl)-piperazin-1-yl]-2-methyl-5-nitro-pyrimidine]
17 nM	99 to 101 °C	CCc1nc(C#N)c(N2CCN(c3ccccc3)CC2)nc1C [Example 75-1, 5′-ethyl-6′-methyl-4-phenyl-3,4,5,6-tetrahydro-2H-[1,2′]bipyrazinyl-3′-carbonitrile]
